The values below come from US9434725B2, “5-azaindazole compounds and methods of use” (priority 2012, dated 2016).

The target in one experiment is PIM2 (Homo sapiens (Human), UniProt Q9P1W9). Nature of the experiment: Pim kinase binding activity, Caliper LC3000 microfluidic peptide phosphorylation assay, PIM2. It counts as biochemical. The conditions noted are these: 10 μM ATP, 90 min, room temperature; read-out: PIM2 LC3K (KI). The essentials: (§1)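 Read-out is microfluidic electrophoretic separation of phosphorylated from unphosphorylated fluorescent Pim peptide, with Ki calculated from conversion. Reactions ran 90 min at room temperature in HEPES pH 7.2 containing MgCl2, Tween 20 and DTT, ended by EDTA-containing buffer.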
Chain of PIM2 (Q9P1W9 whole entry): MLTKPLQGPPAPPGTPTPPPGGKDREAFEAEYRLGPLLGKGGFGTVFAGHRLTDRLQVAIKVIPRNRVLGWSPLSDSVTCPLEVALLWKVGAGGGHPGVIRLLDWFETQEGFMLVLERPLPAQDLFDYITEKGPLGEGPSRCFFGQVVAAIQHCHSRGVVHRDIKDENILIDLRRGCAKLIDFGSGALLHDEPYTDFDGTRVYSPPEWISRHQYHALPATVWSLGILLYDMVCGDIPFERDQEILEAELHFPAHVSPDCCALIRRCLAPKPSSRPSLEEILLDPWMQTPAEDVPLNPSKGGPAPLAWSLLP

Experiment [1] has as its system MM1.S (multiple myeloma) cells. Nature of the experiment: In vitro cell proliferation potency assay (Cell Titer Glo), MM1.S cells. It counts as cell-based. The conditions noted are these: Homo sapiens, read-out: Prolif MM1S ATP (EC50). On the procedure:
BaF3 parental line was obtained from the DSMZ repository. BaF3 lines transfected with PIM1 or PIM2 were generated. Mouse IL-3 was purchased from R&D Systems. G418 was purchased from Clontech. Media for BaF3 parental line contained RPMI, 10% FBS, 2 mM L-Glutamine, 2 ng/mL mIL-3. Media for BaF3 PIM1 & 2 lines contained RPMI, 10% FBS, 2 mM L-Glutamine, […]. Media for MM1.S (multiple myeloma cells) line contained RPMI, 10% FBS, 2 mM L-Glutamine.
BaF3, a murine interleukin-3 dependent pro-B cell line, parental cells, BaF3 PIM1 cells, BaF3 PIM2 cells, and MM1.S (multiple myeloma) cells were seeded at 2 k/well, 5 k/well, 5 k/well, and 10 k/well respectively, in a 384-well plate, at 45 μL/well. Test compound was added at 5 μL/well. BaF3 cells (parental and transfected) were incubated overnight, while MM1.S cells were incubated for 72 hours at 37° C., 5% CO2. CELL TITER GLO® Reagent (Promega) was added at 50 μL/well, the plates were incubated for 30 minutes, and their luminescence read on an HT Analyst. IC50/EC50 values for the test compound were calculated.

The target of another experiment is PIM3 (Homo sapiens (Human), UniProt Q86V86). Nature of the experiment: Pim kinase binding activity, Caliper LC3000 microfluidic peptide phosphorylation assay, PIM3. The conditions noted are these: 10 μM ATP, 90 min, room temperature; read-out: PIM3 LC3K (KI). It is filed as biochemical. The essentials:
as §1

Another experiment deals with PIM1 (Homo sapiens (Human), UniProt P11309). Nature of the experiment: biochemical. It is filed as biochemical. The conditions noted are these: 10 μM ATP, 90 min, room temperature; read-out: PIM1 LC3K (KI). The method, boiled down:
as §1

Setting [2] is: MM1.S, 72 h, MM1.S cells, 72 hours.

Like-named read-outs stand apart in the source and are kept apart here.

Chain of PIM1 (P11309 whole entry): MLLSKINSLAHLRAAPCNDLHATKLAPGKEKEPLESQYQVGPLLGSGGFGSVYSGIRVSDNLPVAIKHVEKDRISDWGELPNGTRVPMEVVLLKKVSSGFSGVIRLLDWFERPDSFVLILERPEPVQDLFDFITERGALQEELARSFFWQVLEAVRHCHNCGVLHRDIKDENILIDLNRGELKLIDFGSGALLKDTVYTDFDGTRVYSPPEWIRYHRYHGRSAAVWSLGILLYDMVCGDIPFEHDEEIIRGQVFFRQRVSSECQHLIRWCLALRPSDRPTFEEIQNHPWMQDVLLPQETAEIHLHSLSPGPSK

As for `FC(F)(F)Cn1cc(-c2cc3c(cn2)cnn3-c2cccc(N3CCCNCC3)n2)cn1` [Compound 154, 1-(6-(1,4-Diazepan-1-yl)pyridin-2-yl)-6-(1-(2,2,2-trifluoroethyl)-1H-pyrazol-4-yl)-1H-pyrazolo[4,3-c]pyridine], the values for the inhibition constant (Ki) at PIM2 and at PIM3 were 1.01 nM and 0.175 nM, respectively. Also, the EC50 in experiment [1] (setting [2]) turned out to be 2300 nM.

In the case of `N#CCn1cc(-c2cc3c(cn2)cnn3-c2cccc(N3CCCNCC3)n2)cn1` [Compound 155, 2-(4-(1-(6-(1,4-Diazepan-1-yl)pyridin-2-yl)-1H-pyrazolo[4,3-c]pyridin-6-yl)-1H-pyrazol-1-yl)acetonitrile], the Ki stood at 1.49 nM on PIM2 and 0.109 nM on PIM3. Further, the 50% effective concentration (EC50) in experiment [1] (setting [2]) stood at 3500 nM.

On to `Cc1cncc(-c2cc3c(cn2)cnn3-c2cccc(N3CC[C@@H](N)C3)n2)n1` [Compound 168, (3R)-1-[6-[6-(6-methylpyrazin-2-yl)pyrazolo[4,3-c]pyridin-1-yl]-2-pyridyl]pyrrolidin-3-amine], for which the values for the Ki at PIM2 and at PIM3 were 4.74 nM and 0.806 nM, respectively. In addition, in experiment [1] (setting [2]), the concentration giving a half-maximal response (EC50) amounted to 5000 nM.

`Cn1cc(-c2cc3c(cn2)cnn3-c2cccc(N3CCNC[C@H](O)C3)n2)cn1` [Compound 231, (S)-1-(6-(6-(1-Methyl-1H-pyrazol-4-yl)-1H-pyrazolo[4,3-c]pyridin-1-yl)pyridin-2-yl)-1,4-diazepan-6-ol]: the inhibition constant Ki was found to be 1.39 nM at PIM2, 0.032 nM on PIM3 and 0.078 nM at PIM1. Also, the half-maximal effective concentration (EC50) in experiment [1] (setting [2]) is 2200 nM.

As for `Nc1cncc(-c2cc3c(cn2)cnn3-c2cccc(N3CCCNCC3)n2)n1` [Compound 247, 6-(1-(6-(1,4-diazepan-1-yl)pyridin-2-yl)-1H-pyrazolo[4,3-c]pyridin-6-yl)pyrazin-2-amine], the Ki at PIM2 worked out at 0.664 nM; on PIM3 it was 0.026 nM; on PIM1, 0.023 nM. For the same molecule, in experiment [1] (MM1.S cells, 72 hours), the EC50 turned out to be 2500 nM.

On to `OCCNc1cncc(-c2cc3c(cn2)cnn3-c2cccc(N3CCNCC3)n2)n1` [Compound 282, 2-[[6-[1-(6-piperazin-1-yl-2-pyridyl)pyrazolo[4,3-c]pyridin-6-yl]pyrazin-2-yl]amino]ethanol], for which the Ki at PIM2 came out at 0.357 nM; at PIM3, 0.021 nM. Further, the half-maximal effective concentration (EC50) in experiment [1] (setting [2]) came to 9700 nM.

On to `O[C@H]1CCC[C@@H]1Nc1cncc(-c2cc3c(cn2)cnn3-c2cccc(N3CCNCC3)n2)n1` [Compound 283], for which the inhibitory constant (Ki) is 8.05 nM on PIM2 and 0.182 nM on PIM3. Also, the EC50 in experiment [1] (setting [2]) was 8900 nM.

As for `Cc1cncc(-c2cc3c(cn2)cnn3-c2cccc(N3CCCC4(CN(C=O)C4)C3)n2)n1` [Compound 291, 6-(6-(6-(6-methylpyrazin-2-yl)-1H-pyrazolo[4,3-c]pyridin-1-yl)pyridin-2-yl)-2,6-diazaspiro[3.5]nonane-2-carbaldehyde], the Ki came to 40.9 nM on PIM2, 3.42 nM at PIM3 and 4.41 nM at PIM1. Besides, the concentration giving a half-maximal response (EC50) in experiment [1] (MM1.S, 72 h) was > 25000 nM.

Consider `OCC#Cc1cncc(-c2cc3c(cn2)cnn3-c2cccc(N3CCNCC3)n2)n1` [Compound 300, 3-(6-(1-(6-(piperazin-1-yl)pyridin-2-yl)-1H-pyrazolo[4,3-c]pyridin-6-yl)pyrazin-2-yl)prop-2-yn-1-ol], for which the inhibitory constant (Ki) on PIM2 came to 0.228 nM; on PIM3 it was 0.032 nM. In experiment [1] (setting [2]), the 50% effective concentration (EC50) is 2400 nM.

In the case of `Cc1cncc(-c2cc3c(cnn3-c3cccc(N4CCNCC4)n3)nn2)n1` [Compound 313, 6-(6-methylpyrazin-2-yl)-1-(6-(piperazin-1-yl)pyridin-2-yl)-1H-pyrazolo[4,3-c]pyridazine], the inhibition constant (Ki) is 0.71 nM at PIM2 and 0.05 nM on PIM3. The EC50 in experiment [1] (setting [2]) was 7100 nM.

Take `CC#Cc1cncc(-c2cc3c(cn2)cnn3-c2cccc(N3CCNCC3)n2)n1` [Compound 317, 1-(6-(piperazin-1-yl)pyridin-2-yl)-6-(6-(prop-1-ynyl)pyrazin-2-yl)-1H-pyrazolo[4,3-c]pyridine]: the inhibition constant (Ki) stood at 1.71 nM at PIM2 and 0.026 nM at PIM3. Also, the EC50 in experiment [1] (setting [2]) is 2700 nM.
